Measurements: patent US11897851B2, “Heterocyclic GLP-1 agonists” (Gasherbrum Bio, Inc., priority 2021, dated 2024)

The molecules below were run against T1, GLP-1 Receptor (Homo sapiens, UniProt P43220) (assay: GLP-1R agonist cAMP stimulation assay (HEK293/GLP1R/CRE-LUC cells, Cisbio cAMP dynamic 2 kit)). Details: HEK293/CRE-Luc cell line stably expressing the GLP-1 Receptor; 1000 cells/well; 30 min at 37° C.; 0.5 mM IBMX, 0.1% BSA; read-out: GLP1R cAMP Stimulation DR: EC50.
T1 construct: host or cells: HEK293/GLP1R/CRE-LUC (HEK293/CRE-Luc stably expressing the GLP-1 receptor)
T1 sequence (P43220 24-463, species assumed): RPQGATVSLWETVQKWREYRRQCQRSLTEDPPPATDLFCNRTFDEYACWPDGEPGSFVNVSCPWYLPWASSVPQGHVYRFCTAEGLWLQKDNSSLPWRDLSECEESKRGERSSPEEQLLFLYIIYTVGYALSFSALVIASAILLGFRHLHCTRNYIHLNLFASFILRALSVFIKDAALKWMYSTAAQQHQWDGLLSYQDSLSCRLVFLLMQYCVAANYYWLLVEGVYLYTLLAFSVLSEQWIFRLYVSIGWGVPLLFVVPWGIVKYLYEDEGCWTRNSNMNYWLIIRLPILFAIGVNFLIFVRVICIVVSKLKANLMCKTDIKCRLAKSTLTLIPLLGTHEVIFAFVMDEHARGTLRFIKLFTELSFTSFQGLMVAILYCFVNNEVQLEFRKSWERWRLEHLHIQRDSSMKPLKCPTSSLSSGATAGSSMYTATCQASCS
Type: cell-based
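Also: compounds tested in half-log serial dilution, cAMP detected with cAMP-d2 and anti-cAMP cryptate antibody reagents after 1 h at room temperature.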

| Structure (SMILES) | EC50 |
| --- | --- |
| Cc1cc(/C=C/C(=O)O)cnc1CN1CCC(c2cccc(OCc3ccc(Cl)cc3F)n2)CC1 [Compound 120, (E)-3-(6-((4-(6-((4-chloro-2-fluorobenzyl)oxy)pyridin-2-yl)piperidin-1-yl)methyl)-5-methylpyridin-3-yl)acrylic acid] | 99 nM |
| Cn1c(/C=C\C(=O)O)cnc1CN1CCC(c2cccc(OCc3ccc(Cl)cc3F)n2)CC1 [Compound 109, (Z)-3-(2-((4-(6-((4-chloro-2-fluorobenzyl)oxy)pyridin-2-yl)piperidin-1-yl)methyl)-1-methyl-1H-imidazol-5-yl)acrylic acid] | 86.4 nM |
| Cn1cncc1Cn1c(/C=C/C(=O)O)cnc1CN1CCC(c2cccc3c2OC[C@@H](c2ccc(Cl)cc2)O3)CC1 [Compound 206a, (R,E)-3-(2-((4-(2-(4-chlorophenyl)-2,3-dihydrobenzo[b][1,4]dioxin-5-yl)piperidin-1-yl)methyl)-1-((1-methyl-1H-imidazol-5-yl)methyl)-1H-imidazol-5-yl)acrylic acid] | 0.19 nM |
| O=C(O)/C=C/c1cnc(CN2CCC(c3cccc(OCc4ccc(Cl)cc4F)n3)CC2)n1C[C@@H]1CCO1 [Compound 103a, (S,E)-3-(2-((4-(6-((4-chloro-2-fluorobenzyl)oxy)pyridin-2-yl)piperidin-1-yl)methyl)-1-(oxetan-2-ylmethyl)-1H-imidazol-5-yl)acrylic acid] | 0.093 nM |
| CCC(O)Cn1c(/C=C/C(=O)O)cnc1CN1CCC(c2cccc3c2OC(C)(c2ccc(Cl)cc2F)O3)CC1 (centres unmarked) [Compound 185, (E)-3-(2-((4-(2-(4-chloro-2-fluorophenyl)-2-methylbenzo[d][1,3]dioxol-4-yl)piperidin-1-yl)methyl)-1-(2-hydroxybutyl)-1H-imidazol-5-yl)acrylic acid] | 20 nM |
| CC(Nc1ccc(CN2CCC(c3cccc(OCc4ccc(Cl)cc4F)n3)CC2)nc1)C(=O)O (centres unmarked) [Compound 130, 2-((6-((4-(6-((4-chloro-2-fluorobenzyl)oxy)pyridin-2-yl)piperidin-1-yl)methyl)pyridin-3-yl)amino)propanoic acid] | > 1000 nM |
| C/C(=C\c1cnc(CN2CCC(c3cccc4c3OC[C@@H](c3ccc(Cl)cc3)O4)CC2)n1C[C@@H]1CCO1)C(=O)O [Compound 115a, (E)-3-(2-((4-((R)-2-(4-chlorophenyl)-2,3-dihydrobenzo[b][1,4]dioxin-5-yl)piperidin-1-yl)methyl)-1-(((S)-oxetan-2-yl)methyl)-1H-imidazol-5-yl)-2-methylacrylic acid] | 3.2 nM |
| C[C@]1(c2ccc(Cl)cc2F)Oc2cccc(C3CCN(Cc4ncc(/C=C/C(=O)O)n4CCOCC(F)(F)F)CC3)c2O1 [Compound 198a, (S,E)-3-(2-((4-(2-(4-chloro-2-fluorophenyl)-2-methylbenzo[d][1,3]dioxol-4-yl)piperidin-1-yl)methyl)-1-(2-(2,2,2-trifluoroethoxy)ethyl)-1H-imidazol-5-yl)acrylic acid] | 0.0095 nM |
| O=C(O)/C=C/c1cnc(CN2CCC(c3cccc(OCc4ccc(Cl)cc4F)n3)CC2)c(CC2CCCO2)c1 (centres unmarked) [Compound 128, (E)-3-(6-((4-(6-((4-chloro-2-fluorobenzyl)oxy)pyridin-2-yl)piperidin-1-yl)methyl)-5-((tetrahydrofuran-2-yl)methyl)pyridin-3-yl)acrylic acid] | 48.9 nM |
| CC1(c2ccc(Cl)cc2F)Oc2cccc(C3CCN(Cc4ncc(/C=C/C(=O)O)n4CC4CCS4(=O)=O)CC3)c2O1 (centres unmarked) [Compound 165, (E)-3-(2-((4-(2-(4-chloro-2-fluorophenyl)-2-methylbenzo[d][1,3]dioxol-4-yl)piperidin-1-yl)methyl)-1-((1,1-dioxidothietan-2-yl)methyl)-1H-imidazol-5-yl)acrylic acid] | 0.014 nM |
| Cc1cc(-c2nnc(C(F)(F)F)[nH]2)cnc1CN1CCC(c2cccc3c2OC(C)(c2ccc(F)cc2)O3)CC1 (centres unmarked) [Compound 263, 2-({4-[2-(4-fluorophenyl)-2-methyl-2H-1,3-benzodioxol-4-yl]piperidin-1-yl}methyl)-3-methyl-5-[5-(trifluoromethyl)-4H-1,2,4-triazol-3-yl]pyridine] | 6.8 nM |
| CC(=O)N(C)CCn1c(/C=C/C(=O)O)cnc1CN1CCC(c2cccc3c2OC(C)(c2ccc(Cl)cc2F)O3)CC1 (centres unmarked) [Compound 175, (E)-3-(2-((4-(2-(4-chloro-2-fluorophenyl)-2-methylbenzo[d][1,3]dioxol-4-yl)piperidin-1-yl)methyl)-1-(2-(N-methylacetamido)ethyl)-1H-imidazol-5-yl)acrylic acid] | 0.047 nM |
| CC(=CC(=O)O)c1nnc(CN2CCC(c3cccc(OCc4ccc(Cl)cc4F)n3)CC2)n1CC1CCC1 [Compound 236, 3-(5-((4-(6-((4-chloro-2-fluorobenzyl)oxy)pyridin-2-yl)piperidin-1-yl)methyl)-4-(cyclobutylmethyl)-4H-1,2,4-triazol-3-yl)but-2-enoic acid] | 38 nM |
| COc1nc(CCC(=O)O)ccc1CN1CCC(c2cccc(OCc3ccc(Cl)cc3F)n2)CC1 [Compound 124, 3-(5-((4-(6-((4-Chloro-2-fluorobenzyl)oxy)pyridin-2-yl)piperidin-1-yl)methyl)-6-methoxypyridin-2-yl)propanoic acid] | > 1000 nM |
| CCOCCc1cc(-c2nnc(C(F)(F)F)[nH]2)cnc1CN1CCC(c2cccc3c2O[C@@](C)(c2ccc(Cl)cc2F)O3)CC1 [Compound 287, 2-({4-[(2S)-2-(4-chloro-2-fluorophenyl)-2-methyl-2H-1,3-benzodioxol-4-yl]piperidin-1-yl}methyl)-3-(2-ethoxyethyl)-5-[5-(trifluoromethyl)-4H-1,2,4-triazol-3-yl]pyridine] | 0.87 nM |
| Cc1nocc1Cn1c(/C=C/C(=O)O)cnc1CN1CCC(c2cccc3c2OC(C)(c2ccc(Cl)cc2F)O3)CC1 (centres unmarked) [Compound 204, (E)-3-(2-((4-(2-(4-chloro-2-fluorophenyl)-2-methylbenzo[d][1,3]dioxol-4-yl)piperidin-1-yl)methyl)-1-((3-methylisoxazol-4-yl)methyl)-1H-imidazol-5-yl)acrylic acid] | 0.012 nM |
| CC1(c2ccc(Cl)cc2F)Oc2cccc(C3CCN(Cc4ncc(/C=C/C(=O)O)n4CCC4CC4)CC3)c2O1 (centres unmarked) [Compound 191, (E)-3-(2-((4-(2-(4-chloro-2-fluorophenyl)-2-methylbenzo[d][1,3]dioxol-4-yl)piperidin-1-yl)methyl)-1-(2-cyclopropylethyl)-1H-imidazol-5-yl)acrylic acid] | 0.33 nM |
| CC1(c2ccc(Cl)cc2F)Oc2cccc(C3CCN(Cc4ncc(/C=C/C(=O)O)n4CC4CCC4(F)F)CC3)c2O1 (centres unmarked) [Compound 167, (E)-3-(2-((4-(2-(4-chloro-2-fluorophenyl)-2-methylbenzo[d][1,3]dioxol-4-yl)piperidin-1-yl)methyl)-1-((2,2-difluorocyclobutyl)methyl)-1H-imidazol-5-yl)acrylic acid] | 0.065 nM |
| CC1(C)C[C@H](Cn2c(/C=C/C(=O)O)cnc2CN2CCC(c3cccc4c3O[C@@](C)(c3ccc(Cl)cc3F)O4)CC2)CO1 [Compound 171b, (E)-3-(2-((4-((S)-2-(4-chloro-2-fluorophenyl)-2-methylbenzo[d][1,3]dioxol-4-yl)piperidin-1-yl)methyl)-1-(((R)-5,5-dimethyltetrahydrofuran-3-yl)methyl)-1H-imidazol-5-yl)acrylic acid] | 17 nM |
| CC1(c2ccc(Cl)cc2F)Oc2cccc(N3CCN(Cc4ncc(/C=C/C(=O)O)n4C[C@@H]4CCO4)CC3)c2O1 (stereo partly drawn) [Compound 179, (E)-3-(2-((4-(2-(4-chloro-2-fluorophenyl)-2-methylbenzo[d][1,3]dioxol-4-yl)piperazin-1-yl)methyl)-1-(((S)-oxetan-2-yl)methyl)-1H-imidazol-5-yl)acrylic acid] | 0.036 nM |
| C/C(=C\c1cnc(CN2CCC(c3cccc(OCc4ccc(Cl)cc4F)n3)CC2)n1C[C@@H]1CCO1)C(=O)O [Compound 218a, (S,E)-3-(2-((4-(6-((4-chloro-2-fluorobenzyl)oxy)pyridin-2-yl)piperidin-1-yl)methyl)-1-(oxetan-2-ylmethyl)-1H-imidazol-5-yl)-2-methylacrylic acid] | 1.4 nM |
| CC(C)OCCn1c(/C=C/C(=O)O)cnc1CN1CCC(c2cccc3c2OC(C)(c2ccc(Cl)cc2F)O3)CC1 (centres unmarked) [Compound 158, (E)-3-(2-((4-(2-(4-chloro-2-fluorophenyl)-2-methylbenzo[d][1,3]dioxol-4-yl)piperidin-1-yl)methyl)-1-(2-isopropoxyethyl)-1H-imidazol-5-yl)acrylic acid] | 0.056 nM |
| Cc1cc(-c2nnn[nH]2)cnc1CN1CCC(c2cccc3c2OC(C)(c2ccc(Cl)cc2F)O3)CC1 (centres unmarked) [Compound 253, 2-({4-[2-(4-chloro-2-fluorophenyl)-2-methyl-2H-1,3-benzodioxol-4-yl]piperidin-1-yl}methyl)-3-methyl-5-(1H-1,2,3,4-tetrazol-5-yl)pyridine] | 4 nM |
| Cn1c(/C=C/C(=O)O)cnc1CN1CCC(c2cccc3c2OC(C)(c2ccc(Cl)cc2F)O3)CC1 (centres unmarked) [Compound 164, (E)-3-(2-((4-(2-(4-chloro-2-fluorophenyl)-2-methylbenzo[d][1,3]dioxol-4-yl)piperidin-1-yl)methyl)-1-methyl-1H-imidazol-5-yl)acrylic acid] | 0.33 nM |
| Cc1cc(-c2nnc(C(F)F)[nH]2)cnc1CN1CCC(c2cccc3c2OC(C)(c2ccc(Cl)cc2F)O3)CC1 (centres unmarked) [Compound 257, 2-({4-[2-(4-chloro-2-fluorophenyl)-2-methyl-2H-1,3-benzodioxol-4-yl]piperidin-1-yl}methyl)-5-[5-(difluoromethyl)-4H-1,2,4-triazol-3-yl]-3-methylpyridine] | 14 nM |
| CC1(c2ccc(Cl)cc2F)Oc2cccc(C3CCN(Cc4ncc(/C=C/C(=O)O)n4Cc4cccc(Cl)c4)CC3)c2O1 (centres unmarked) [Compound 150, (E)-3-(2-((4-(2-(4-chloro-2-fluorophenyl)-2-methylbenzo[d][1,3]dioxol-4-yl)piperidin-1-yl)methyl)-1-(3-chlorobenzyl)-1H-imidazol-5-yl)acrylic acid] | 0.054 nM |
